Measured values taken from patent US6545009B1, “Retinoid-related receptor function regulating agent” (Takeda Chemical Industries, Ltd., priority 1998, dated 2003).

Assays:
[1] = target: T1, PPARγ-RXRα heterodimer (Homo sapiens, UniProt P19793+P37231); experiment: PPARγ-RXRα heterodimer ligand activity (luciferase reporter in PPARγ:RXRα:4ERPP/CHO-K1 cells); format: cell-based; conditions: for EC50: luciferase fold induction, 48 hours
T1 construct: expressed in transfected cells; host or cells: CHO-K1
T1 sequence (P37231 1-477 isoform P37231-2): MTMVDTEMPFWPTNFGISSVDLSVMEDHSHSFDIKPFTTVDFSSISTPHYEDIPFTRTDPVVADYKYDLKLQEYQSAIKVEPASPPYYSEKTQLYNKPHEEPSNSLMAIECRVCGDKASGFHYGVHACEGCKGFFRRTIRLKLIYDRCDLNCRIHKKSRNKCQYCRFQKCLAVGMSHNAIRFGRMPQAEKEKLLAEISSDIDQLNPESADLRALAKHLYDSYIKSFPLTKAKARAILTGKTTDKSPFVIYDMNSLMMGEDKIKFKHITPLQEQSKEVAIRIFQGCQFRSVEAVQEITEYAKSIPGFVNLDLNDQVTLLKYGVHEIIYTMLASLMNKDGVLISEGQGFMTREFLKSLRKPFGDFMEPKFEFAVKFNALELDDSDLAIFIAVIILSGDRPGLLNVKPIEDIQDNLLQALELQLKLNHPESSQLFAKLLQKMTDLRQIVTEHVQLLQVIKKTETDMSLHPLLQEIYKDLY
T1 sequence (P19793 1-462): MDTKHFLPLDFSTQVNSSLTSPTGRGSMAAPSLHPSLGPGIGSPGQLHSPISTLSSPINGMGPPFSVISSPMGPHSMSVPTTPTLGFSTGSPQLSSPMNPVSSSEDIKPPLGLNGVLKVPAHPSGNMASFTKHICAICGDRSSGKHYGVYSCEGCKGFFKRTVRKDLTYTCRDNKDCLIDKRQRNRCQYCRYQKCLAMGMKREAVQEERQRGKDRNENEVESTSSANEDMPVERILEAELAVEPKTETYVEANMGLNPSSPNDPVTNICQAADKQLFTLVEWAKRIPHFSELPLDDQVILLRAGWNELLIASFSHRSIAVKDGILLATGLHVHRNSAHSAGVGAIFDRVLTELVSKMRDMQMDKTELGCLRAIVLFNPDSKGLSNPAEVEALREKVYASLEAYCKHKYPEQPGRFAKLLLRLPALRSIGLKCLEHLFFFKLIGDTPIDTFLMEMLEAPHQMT
Protocol: (§1) PPAR γ:RXR α:4ERPP/CHO-K1 cells obtained in Reference Example 5 were cultured in HAM F12 medium (produced by NISSUI SEIYAKU) containing 10% Fetal bovine serum (produced by Life Technologies, Inc., USA) and then inoculated to a 96-well white plate (produced by Corning Costar Corporation, USA) at the density of 2×10^4 cells/well, and cultured in a CO2 gas incubator at 37° C. overnight.
(§2) After washing the 96 well white plate with PBS (Phosphate-buffered saline), 90 μl of HAM F12 medium containing 0.1% fatty acid-free bovine serum albumin (BSA) and 10 μl of test compound were added to each well, and the plate was cultured in a CO2 gas incubator at 37° C. for 48 hours. After removing the medium, 40 μl of PIKKAGENE 7.5 (produced by Wako Pure Chemical Industries, Ltd.) was added to the well. After stirring, the luciferase activity was determined using Lumistar (produced by BMG Labtechnologies GmbH, Germany).
(§3) A fold induction was calculated based on the luciferase activity of each test compound by estimating the luciferase activity in the non-treatment group as 1. The values of the test compound concentration and the fold induction were used to calculate the EC50 values, the effective concentration of a test compound for 50% of the maximum fold induction, by using PRISM 2.01 (produced by GraphPad Software Inc. USA).
as §1, with “PPARγ:RXRα:4ERPP/CHO-K1” for “PPAR γ:RXR α:4ERPP/CHO-K1”, “Reference.” for “Reference”
as §2, with “7.5 produced” for “7.5 (produced”, “Labtechnologies Gmbh,” for “Labtechnologies GmbH,”
as §3, with “maximum” for “maximum fold”, “USA). The results are shown in [Table 1].” for “USA).”

[2] = tested on: KKA^y mice; experiment: Hypoglycemic and hypolipidemic (hypotriglyceridemic) activities in mice; format: in vivo; conditions: four days; for Hypoglycemic effect (%) / Hypolipidemic effect (%): 0.01% in powdered diet; for Hypoglycemic effect (%): reduction rate of plasma glucose compared with non-treatment group; for Hypolipidemic effect (%): reduction rate of plasma triglyceride compared with non-treatment group
Protocol: Test compound was mixed in a powdered diet (CE-2, Japan Clea) at the concentration of 0.01%, and freely given to KKA^y mice (9 to 12 weeks old, 5 mice in a group) a model of obese and non-insulin-dependent diabetes mellitus (Type 2 diabetes mellitus), for four days. […] During the experimental period, water was given freely Blood was obtained from orbital venous plexus, and glucose and triglyceride levels in plasma were determined enzymatically using L type Wako Glu2 (Wako Pure Chemical Industries, Ltd.) and L type Wako TG·H (Wako Pure Chemical Industries, Ltd.), respectively.
Test compound was mixed in a powdered diet (CE-2, Japan Clea) at the concentration of 0.01%, and freely given to KKA^y mice (9 to 12 weeks old, 5 mice in a group), a model of obese and.non-insulin-dependent diabetes mellitus (Type 2 diabtes mellitus), for four days. During this period, water was given freely. Blood was obtained from orbital venous plexus, and glucose and triglyceride levels in plasma were determined enzymatically using L type Wako Glu2 (Wako Pure Chemical Industries, Ltd.) and L type Wako TG·H (Wako Pure Chemical Industries, Ltd.), respectively.
The value of each treatment group is represented as reduction rate (%) compared with the non-treatment group, which is shown in [Table 2].

O=C(O)c1ccc(-c2nc(-c3ccc(Cl)cc3)cs2)cc1 [Example 52, 4-[4-(4-chlorophenyl)-2-thiazolyl]benzoic acid]
PPARγ-RXRα heterodimer ligand activity ([1]; at a concentration ranging from 10^−5 M to 10^−9 M): potent | hypoglycemic activity ([2]; 0.01% in diet, dose ranging from 0.1 to 50 mg/kg/day, plasma glucose): potent | hypolipidemic (hypotriglyceridemic) activity ([2]; 0.01% in diet, dose ranging from 0.1 to 50 mg/kg/day, plasma triglyceride): potent

O=C(O)c1ccc(-c2nc(-c3ccc(C(F)(F)F)cc3)cs2)cc1 [Example 55, 4-[4-(4-trifluoromethylphenyl)-2-thiazolyl]benzoic acid]
EC50 [1]: 68 nM | Hypoglycemic effect (%) [2]: 70% | Hypolipidemic effect (%) [2]: 86% | melting point: 164 to 165 °C

O=C(O)c1ccc(-c2nc(-c3ccc(C(F)(F)F)cc3)co2)cc1 [Example 9, 4-[4-(4-trifluoromethylphenyl)-2-oxazolyl]benzoic acid]
EC50 [1]: 23 nM | Hypoglycemic effect (%) [2]: 51% | Hypolipidemic effect (%) [2]: 67% | melting point: 258 to 259 °C

O=C(O)c1ccc(-c2nc(-c3ccc(OC(F)(F)F)cc3)cs2)cc1 [Example 64, 4-[4-(4-trifluoromethoxylphenyl)-2-thiazolyl]benzoic acid]
EC50 [1]: 310 nM | Hypoglycemic effect (%) [2]: 68% | Hypolipidemic effect (%) [2]: 88% | melting point: 245 to 246 °C

O=C(O)c1ccc(-c2cnc(-c3ccc(C(F)(F)F)cc3)o2)cc1 [Example 110, 4-[2-(4-trifluoromethylphenyl)-5-oxazolyl]benzoic acid]
EC50 [1]: 48 nM | Hypoglycemic effect (%) [2]: 73% | Hypolipidemic effect (%) [2]: 87% | melting point: 253 to 254 °C
